Measured values reported in PubChem BioAssay (NCI).
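Test compounds were applied to cells in 96-well plates for 48 hours at 5 doses. Here, GI50 denotes the concentration required for 50% inhibition of growth. At the TGI there is no net growth.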

Experiments:
Assay in all cases: growth of human tumour cells (NCI), 48 h; in the data active = GI50 below about 0.43 µM; inactive = the rest
NCI-H460 lung = system: NCI-H460 lung
IGROV1 ovarian = system: IGROV1 ovarian
SK-MEL-28 melanoma = system: SK-MEL-28 melanoma
OVCAR-3 ovarian = system: OVCAR-3 ovarian
KM12 colon = system: KM12 colon
SNB-75 CNS = system: SNB-75 CNS
UACC-62 melanoma = system: UACC-62 melanoma
SN12C renal = system: SN12C renal
HCT-15 colon = system: HCT-15 colon
HOP-62 NSCLC = system: HOP-62 NSCLC
U251 CNS = system: U251 CNS
UACC-257 melanoma = system: UACC-257 melanoma
K-562 leukemia = system: K-562 leukemia
RPMI-8226 leukemia = system: RPMI-8226 leukemia
RXF 393 renal = system: RXF 393 renal
OVCAR-5 ovarian = system: OVCAR-5 ovarian
A498 renal = system: A498 renal
COLO 205 colon = system: COLO 205 colon
XF 498 CNS = system: XF 498 CNS
LXFL 529 NSCLC = system: LXFL 529 NSCLC
OVCAR-4 ovarian = system: OVCAR-4 ovarian
HCT-116 colon = system: HCT-116 colon
SNB-19 CNS = system: SNB-19 CNS
SF-539 CNS = system: SF-539 CNS
MALME-3M melanoma = system: MALME-3M melanoma
LOX IMVI melanoma = system: LOX IMVI melanoma
SF-295 CNS = system: SF-295 CNS
NCI-H23 lung = system: NCI-H23 lung
UO-31 renal = system: UO-31 renal
A549 NSCLC = system: A549 NSCLC
HL-60(TB) leukemia = system: HL-60(TB) leukemia
HT29 colon = system: HT29 colon
NCI-H522 lung = system: NCI-H522 lung
SK-MEL-5 melanoma = system: SK-MEL-5 melanoma
SNB-78 CNS = system: SNB-78 CNS
M19-MEL melanoma = system: M19-MEL melanoma
SK-MEL-2 melanoma = system: SK-MEL-2 melanoma
HOP-92 NSCLC = system: HOP-92 NSCLC
KM20L2 colon = system: KM20L2 colon
DMS 273 small cell lung = system: DMS 273 small cell lung
EKVX NSCLC = system: EKVX NSCLC
M14 melanoma = system: M14 melanoma
HCC-2998 colon = system: HCC-2998 colon
SF-268 CNS = system: SF-268 CNS
SK-OV-3 ovarian = system: SK-OV-3 ovarian
TK-10 renal = system: TK-10 renal
DLD-1 colon = system: DLD-1 colon
SW-620 colon = system: SW-620 colon
ACHN renal = system: ACHN renal
HOP-18 NSCLC = system: HOP-18 NSCLC
OVCAR-8 ovarian = system: OVCAR-8 ovarian
786-0 renal = system: 786-0 renal
MOLT-4 leukemia = system: MOLT-4 leukemia
SR leukemia = system: SR leukemia
NCI-H226 lung = system: NCI-H226 lung
CAKI-1 renal = system: CAKI-1 renal
DMS 114 small cell lung = system: DMS 114 small cell lung
RXF-631 renal = system: RXF-631 renal
CCRF-CEM leukemia = system: CCRF-CEM leukemia

NC1CCCCC1N.O=C1C=C/C(=C(/c2ccc(O)c(Br)c2)c2ccccc2S(=O)(=O)[O-])C=C1Br.O=C1C=C/C(=C(/c2ccc(O)c(Br)c2)c2ccccc2S(=O)(=O)[O-])C=C1Br.[Pt+4]
89.7 µM: TGI (RXF 393 renal)
0.755 µM: GI50 (KM20L2 colon)
29.2 µM: TGI (DMS 273 small cell lung)
inactive: GI50 (NCI-H460 lung) 1.54 µM | GI50 (IGROV1 ovarian) 4.17 µM | GI50 (SK-MEL-28 melanoma) 2.35 µM | GI50 (OVCAR-3 ovarian) 13.8 µM | GI50 (KM12 colon) 32.6 µM | GI50 (SNB-75 CNS) 0.992 µM | GI50 (UACC-62 melanoma) 9.45 µM | GI50 (SN12C renal) 3.59 µM | GI50 (HCT-15 colon) 3.85 µM | GI50 (HOP-62 NSCLC) 7.88 µM | GI50 (U251 CNS) 5.21 µM | GI50 (UACC-257 melanoma) 5.38 µM | GI50 (K-562 leukemia) 8.79 µM | GI50 (RPMI-8226 leukemia) 6.29 µM | GI50 (RXF 393 renal) 19.8 µM | GI50 (OVCAR-5 ovarian) 2 µM | GI50 (A498 renal) 22.1 µM | GI50 (COLO 205 colon) 1.64 µM | GI50 (LXFL 529 NSCLC) 4.43 µM | GI50 (OVCAR-4 ovarian) 2.35 µM | GI50 (HCT-116 colon) 0.79 µM | GI50 (SNB-19 CNS) 7.14 µM | GI50 (SF-539 CNS) 2.62 µM | GI50 (MALME-3M melanoma) 0.664 µM | GI50 (LOX IMVI melanoma) 3.18 µM | GI50 (SF-295 CNS) 4.99 µM | GI50 (NCI-H23 lung) 2.88 µM | GI50 (UO-31 renal) 8.03 µM | GI50 (A549 NSCLC) 2.42 µM | GI50 (HL-60(TB) leukemia) 1.43 µM | GI50 (HT29 colon) 1.67 µM | GI50 (NCI-H522 lung) 1.9 µM | GI50 (SK-MEL-5 melanoma) 3.29 µM | GI50 (SNB-78 CNS) 48.2 µM | GI50 (M19-MEL melanoma) 0.539 µM | GI50 (SK-MEL-2 melanoma) 10.1 µM | GI50 (HOP-92 NSCLC) > 100 µM | GI50 (DMS 273 small cell lung) 0.813 µM | GI50 (EKVX NSCLC) 93 µM | GI50 (M14 melanoma) 7.77 µM | GI50 (HCC-2998 colon) 4.66 µM | GI50 (SF-268 CNS) 0.885 µM | GI50 (SK-OV-3 ovarian) 54.2 µM | GI50 (TK-10 renal) 57.2 µM | GI50 (DLD-1 colon) 5.27 µM | GI50 (SW-620 colon) 0.578 µM | GI50 (ACHN renal) 1.42 µM | GI50 (HOP-18 NSCLC) 7.95 µM | GI50 (OVCAR-8 ovarian) 1.27 µM | GI50 (786-0 renal) 2.42 µM
32.2 µM: TGI (M19-MEL melanoma)
40.6 µM: TGI (COLO 205 colon)
87.7 µM: TGI (OVCAR-5 ovarian)
22.6 µM: TGI (NCI-H522 lung)
active: GI50 (XF 498 CNS) 0.112 µM
50.8 µM: TGI (SF-539 CNS)
21.3 µM: TGI (MALME-3M melanoma)
21.4 µM: TGI (SK-MEL-5 melanoma)
52.2 µM: TGI (SW-620 colon)
9.95 µM: TGI (HOP-62 NSCLC)
0.927 µM: TGI (XF 498 CNS)
> 100 µM: TGI (NCI-H460 lung) | TGI (IGROV1 ovarian) | TGI (OVCAR-3 ovarian) | TGI (KM12 colon) | TGI (SNB-75 CNS) | TGI (UACC-62 melanoma) | TGI (SN12C renal) | TGI (HCT-15 colon) | TGI (U251 CNS) | TGI (UACC-257 melanoma) | TGI (K-562 leukemia) | TGI (RPMI-8226 leukemia) | TGI (A498 renal) | TGI (LXFL 529 NSCLC) | TGI (OVCAR-4 ovarian) | TGI (HCT-116 colon) | TGI (SNB-19 CNS) | TGI (LOX IMVI melanoma) | TGI (SF-295 CNS) | TGI (NCI-H23 lung) | TGI (UO-31 renal) | TGI (A549 NSCLC) | TGI (HL-60(TB) leukemia) | TGI (HT29 colon) | TGI (SNB-78 CNS) | TGI (SK-MEL-2 melanoma) | TGI (HOP-92 NSCLC) | TGI (KM20L2 colon) | TGI (EKVX NSCLC) | TGI (M14 melanoma) | TGI (HCC-2998 colon) | TGI (SF-268 CNS) | TGI (SK-OV-3 ovarian) | TGI (TK-10 renal) | TGI (DLD-1 colon) | TGI (ACHN renal) | TGI (HOP-18 NSCLC) | TGI (OVCAR-8 ovarian) | TGI (786-0 renal)
38.2 µM: TGI (SK-MEL-28 melanoma)

CCOC(=O)C(CCC(N)=O)(CCC(=O)OC)C(=O)OCC
> 100 µM: TGI (NCI-H460 lung) | TGI (IGROV1 ovarian) | TGI (SK-MEL-28 melanoma) | TGI (OVCAR-3 ovarian) | TGI (KM12 colon) | TGI (SNB-75 CNS) | TGI (UACC-62 melanoma) | TGI (SN12C renal) | TGI (MOLT-4 leukemia) | TGI (HOP-62 NSCLC) | TGI (U251 CNS) | TGI (UACC-257 melanoma) | TGI (SR leukemia) | TGI (K-562 leukemia) | TGI (RPMI-8226 leukemia) | TGI (RXF 393 renal) | TGI (OVCAR-5 ovarian) | TGI (A498 renal) | TGI (COLO 205 colon) | TGI (XF 498 CNS) | TGI (LXFL 529 NSCLC) | TGI (NCI-H226 lung) | TGI (OVCAR-4 ovarian) | TGI (HCT-116 colon) | TGI (SNB-19 CNS) | TGI (SF-539 CNS) | TGI (MALME-3M melanoma) | TGI (LOX IMVI melanoma) | TGI (SF-295 CNS) | TGI (NCI-H23 lung) | TGI (UO-31 renal) | TGI (A549 NSCLC) | TGI (HL-60(TB) leukemia) | TGI (HT29 colon) | TGI (NCI-H522 lung) | TGI (SNB-78 CNS) | TGI (M19-MEL melanoma) | TGI (CAKI-1 renal) | TGI (HOP-92 NSCLC) | TGI (KM20L2 colon) | TGI (DMS 273 small cell lung) | TGI (DMS 114 small cell lung) | TGI (EKVX NSCLC) | TGI (M14 melanoma) | TGI (HCC-2998 colon) | TGI (SF-268 CNS) | TGI (SK-OV-3 ovarian) | TGI (TK-10 renal) | TGI (DLD-1 colon) | TGI (SW-620 colon) | TGI (ACHN renal) | TGI (HOP-18 NSCLC) | TGI (OVCAR-8 ovarian) | TGI (786-0 renal)

CN(C)CCC(CCN(C)C)=NO
> 100 µM: TGI (NCI-H460 lung) | TGI (IGROV1 ovarian) | TGI (SK-MEL-28 melanoma) | TGI (OVCAR-3 ovarian) | TGI (KM12 colon) | TGI (SNB-75 CNS) | TGI (UACC-62 melanoma) | TGI (SN12C renal) | TGI (HCT-15 colon) | TGI (MOLT-4 leukemia) | TGI (HOP-62 NSCLC) | TGI (U251 CNS) | TGI (RXF-631 renal) | TGI (UACC-257 melanoma) | TGI (K-562 leukemia) | TGI (RPMI-8226 leukemia) | TGI (RXF 393 renal) | TGI (A498 renal) | TGI (COLO 205 colon) | TGI (LXFL 529 NSCLC) | TGI (OVCAR-4 ovarian) | TGI (HCT-116 colon) | TGI (SNB-19 CNS) | TGI (SF-539 CNS) | TGI (MALME-3M melanoma) | TGI (SF-295 CNS) | TGI (CCRF-CEM leukemia) | TGI (NCI-H23 lung) | TGI (UO-31 renal) | TGI (A549 NSCLC) | TGI (HL-60(TB) leukemia) | TGI (HT29 colon) | TGI (NCI-H522 lung) | TGI (SK-MEL-5 melanoma) | TGI (SNB-78 CNS) | TGI (M19-MEL melanoma) | TGI (CAKI-1 renal) | TGI (SK-MEL-2 melanoma) | TGI (KM20L2 colon) | TGI (DMS 273 small cell lung) | TGI (DMS 114 small cell lung) | TGI (EKVX NSCLC) | TGI (M14 melanoma) | TGI (HCC-2998 colon) | TGI (SF-268 CNS) | TGI (SK-OV-3 ovarian) | TGI (TK-10 renal) | TGI (DLD-1 colon) | TGI (SW-620 colon) | TGI (ACHN renal) | TGI (HOP-18 NSCLC) | TGI (OVCAR-8 ovarian) | TGI (786-0 renal)
